How the values were obtained:
[1] = Local (subcutaneous) pharmacokinetic study by dermal microdialysis after dermal administration of Huoxuezhitong rubber patch; assay type: in vivo; conditions: Sprague-Dawley, rat, subcutaneous (dermal) microdialysate, topical, male SD rats, mean ± SD, n = 6; for Cmax: maximum subcutaneous concentration, transdermal Huoxuezhitong rubber patch (3.46 cm2), removed after 720 min, corrected by RR; for AUC(0-t): subcutaneous concentration-time curve, read-out: AUC0-720 (converted); for AUC(0-t) / Tmax / MRT last / MRT inf / half-life: transdermal Huoxuezhitong rubber patch; for Tmax: subcutaneous tissue; for MRT last / MRT inf / half-life: subcutaneous; for MRT last: read-out: MRT0-720 (converted); for MRT inf: read-out: MRT0-∞ (converted); for half-life: terminal elimination half-life
Experimental: Before surgery, a rat with the hair on the abdomen shaved off was anesthetized with Urethane (1.5g/ kg, intraperitoneal injection). Its shell temperature was maintained at about 32.5°C during the experiment with the help of an infrared lamp. The linear microdialysis probe was inserted through a 23-gage intravenous needle. Subsequently, the needle was taken out, leaving the dialysis membranes horizontal under the hairless skin.
Implantation and pretreatment of the probe are the same as that described in Section 2.3. Then a round rubber patch (3.46 cm^2) was pasted on the hairless abdomen of the rat, respectively. After 720 min, the paste was scripted away. The skin was wiped softly and carefully to remove the residual drug. Simultaneously, another three samples was collected. If the rats suddenly died, the collection had to be terminated. All samples were immediately stored at 4°C until injected into the LC/MS/MS system for analysis. The sample concentration was corrected by RR.
The pharmacokinetics analysis was conducted by a noncompartmental approach using the Kinetica 5.1. The pharmacokinetics parameters, such as the maximum subcutaneous concentration (Cmax), time of reaching Cmax (Tmax), the area subcutaneous concentration-time curve (AUC0-t), the mean residence time (MRT), and the terminal elimination half-life (t1/2), were calculated on each individual analyte.

[2] = cited from earlier work

Cmax [1] [ng/mL] | AUC(0-t) [1] [ng·h/mL] | Tmax [1] [h] | MRT last [1] [h] | MRT inf [1] [h] | half-life [1] [h] | Structure (SMILES) | Water solubility [2]
12.6 ± 3.29 | 83.7 | 3.11 | 6.06 | 9.5 | 5.62 ± 3.8 | COc1ccc(C(C)=O)c(O)c1 [paeonol] | 349.8 µg/mL
1.8 ± 1.22 | 14.7 | 8.13 | 9.17 | 11.5 | 5.62 ± 0.741 | O=C(/C=C/C=C/c1ccc2c(c1)OCO2)N1CCCCC1 [piperine] | insoluble

Structure (SMILES) | Cmax [1] [ng/mL] | AUC(0-t) [1] [ng·h/mL] | Tmax [1] [h] | MRT last [1] [h] | MRT inf [1] [h] | half-life [1] [h] | Water solubility [2]
C=CCc1ccc(O)c(OC)c1 [eugenol] | 18.9 ± 7.11 | 119 | 4 | 6.2 | 7.77 | 3.81 ± 2.7 | insoluble
